Species: Rattus norvegicus
Experiment: Open TG-GATES - Regimen: Single
Format: toxicity, organism-based, Sprague-Dawley
Set-up: regimen Single, gender Male, age 6 weeks
Settings: in vivo, po, route gavage; for APTT / Bas / Eos / Fbg / Hb / Ht / Lym / MCH / MCHC / MCV / Mono / Neu / PT / Plat / Ret / WBC: tissue Blood; for KIDNEY_L / KIDNEY_R / KIDNEY_TOTAL: tissue Kidney; for LIVER: tissue Liver; for ALP / ALT / AST / BUN / CRE / DBIL / GLC / IP / K / LDH / Na / PL / RALB / TBIL / TC / TG / TP / gamma-GTP / Ca: tissue Plasma
[1] = 0 mg/kg, 3 h, dose level Control
[2] = 0 mg/kg, 6 h, dose level Control
[3] = 0 mg/kg, 9 h, dose level Control
[4] = 0 mg/kg, 24 h, dose level Control

## CN(C)CCCN1c2ccccc2CCc2ccc(Cl)cc21 [CLOMIPRAMINE]
[1]
  TERMINAL_BW: 213.4 g
  APTT: 23.8 s
  Bas: 0.4%
  Eos: 0.8%
  Fbg: 259.6 mg/dL
  Hb: 13.8 g/dL
  Ht: 42.8%
  Lym: 77.4%
  MCH: 21.4 pg
  MCHC: 32.3%
  MCV: 66.4 fL
  Mono: 3.6%
  Neu: 16.8%
  PT: 13.6 s
  Plat: 115.6 x10_4/uL
  Ret: 8.2%
  WBC: 86.3 x10_2/uL
  KIDNEY_L: 1 g
  KIDNEY_R: 1 g
  KIDNEY_TOTAL: 1.9 g
  LIVER: 9.4 g
  ALP: 1695.8 IU/L
  ALT: 43.8 IU/L
  AST: 82.8 IU/L
  BUN: 9.6 mg/dL
  CRE: 0.2 mg/dL
  DBIL: 0.006 mg/dL
  GLC: 182.4 mg/dL
  IP: 9.7 mg/dL
  K: 4.2 meq/L
  LDH: 98.4 IU/L
  Na: 140.2 meq/L
  PL: 140 mg/dL
  RALB: 2.5 g/dL
  TBIL: 0.074 mg/dL
  TC: 75.4 mg/dL
  TG: 54.2 mg/dL
  TP: 5.2 g/dL
  gamma-GTP: 1 IU/L
[2]
  TERMINAL_BW: 213.9 g
  APTT: 16.6 s
  Bas: 0%
  Eos: 0.8%
  Fbg: 254.2 mg/dL
  Hb: 13.7 g/dL
  Ht: 42.3%
  Lym: 76.2%
  MCH: 21 pg
  MCHC: 32.3%
  MCV: 65.1 fL
  Mono: 2.8%
  Neu: 19.2%
  PT: 13.9 s
  Plat: 125.3 x10_4/uL
  Ret: 8.3%
  WBC: 83.4 x10_2/uL
  KIDNEY_L: 1 g
  KIDNEY_R: 1 g
  KIDNEY_TOTAL: 2 g
  LIVER: 9.4 g
  ALP: 1630.4 IU/L
  ALT: 38.6 IU/L
  AST: 76.6 IU/L
  BUN: 9.2 mg/dL
  CRE: 0.2 mg/dL
  Ca: 10.8 mg/dL
  DBIL: 0.006 mg/dL
  GLC: 178.2 mg/dL
  IP: 9.8 mg/dL
  K: 4.2 meq/L
  LDH: 90 IU/L
  Na: 140.4 meq/L
  PL: 142.6 mg/dL
  RALB: 2.6 g/dL
  TBIL: 0.07 mg/dL
  TC: 71.8 mg/dL
  TG: 77.8 mg/dL
  TP: 5.4 g/dL
  gamma-GTP: 1 IU/L
[3]
  TERMINAL_BW: 213.6 g
  APTT: 16.7 s
  Bas: 0.2%
  Eos: 1%
  Fbg: 245 mg/dL
  Hb: 13.4 g/dL
  Ht: 41%
  Lym: 78.2%
  MCH: 21 pg
  MCHC: 32.6%
  MCV: 64.4 fL
  Mono: 1.6%
  Neu: 18%
  PT: 14 s
  Plat: 133.7 x10_4/uL
  Ret: 8.1%
  WBC: 86.1 x10_2/uL
  KIDNEY_L: 1 g
  KIDNEY_R: 1 g
  KIDNEY_TOTAL: 2 g
  LIVER: 8.5 g
  ALP: 1606 IU/L
  ALT: 39.8 IU/L
  AST: 79.8 IU/L
  BUN: 9.8 mg/dL
  CRE: 0.2 mg/dL
  DBIL: 0.008 mg/dL
  GLC: 181 mg/dL
  IP: 10.1 mg/dL
  K: 4 meq/L
  LDH: 109.8 IU/L
  Na: 140.6 meq/L
  PL: 139.2 mg/dL
  RALB: 2.4 g/dL
  TBIL: 0.07 mg/dL
  TC: 75.4 mg/dL
  TG: 51.2 mg/dL
  TP: 5.1 g/dL
  gamma-GTP: 1 IU/L
[4]
  TERMINAL_BW: 229.8 g
  APTT: 18 s
  Bas: 0%
  Eos: 0.8%
  Fbg: 257.8 mg/dL
  Hb: 13.5 g/dL
  Ht: 41.6%
  Lym: 82.6%
  MCH: 20.5 pg
  MCHC: 32.4%
  MCV: 63.4 fL
  Mono: 2.8%
  Neu: 12.6%
  PT: 13.4 s
  Plat: 129 x10_4/uL
  Ret: 7.4%
  WBC: 82.9 x10_2/uL
  KIDNEY_L: 1 g
  KIDNEY_R: 1 g
  KIDNEY_TOTAL: 2.1 g
  LIVER: 11 g
  ALP: 1743.2 IU/L
  ALT: 45.8 IU/L
  AST: 73.4 IU/L
  BUN: 14 mg/dL
  CRE: 0.2 mg/dL
  Ca: 10.9 mg/dL
  DBIL: 0.01 mg/dL
  GLC: 176.4 mg/dL
  IP: 8.2 mg/dL
  K: 4.1 meq/L
  LDH: 80.2 IU/L
  Na: 140.8 meq/L
  PL: 161.6 mg/dL
  RALB: 2.6 g/dL
  TBIL: 0.062 mg/dL
  TC: 83.2 mg/dL
  TP: 5.5 g/dL
  gamma-GTP: 1 IU/L
10 mg/kg, 3 h, dose level Low
  TERMINAL_BW: 216.3 g

Reference: ChEMBL document CHEMBL3885861, “Open TG-GATES”
